Measurements as given in ChEMBL document CHEMBL5303304, “EUbOPEN Chemogenomics Library - IncuCyte” (2023).

Key:
Type in all cases: toxicity, cell-based
HEK-293T = assay: Incucyte cell viability with HEK293T; settings: human, 10 µM, compound concentration 10 uM
Fibroblast = assay: Incucyte cell viability with human fibroblast; settings: 10 µM, compound concentration 10 uM
U2OS = assay: Incucyte cell viability with U2OS; settings: human, 10 µM, compound concentration 10 uM
Note: unitless GR value; below 1 slowed growth and below 0 cell loss.

Row | Compound | Growth Rate (HEK-293T; 6 h, replicate number 1) | Growth Rate (HEK-293T; 12 h, replicate number 1) | Growth Rate (HEK-293T; 12 h, replicate number 2) | Growth Rate (HEK-293T; 18 h, replicate number 1) | Growth Rate (HEK-293T; 18 h, replicate number 2) | Growth Rate (HEK-293T; 24 h, replicate number 1) | Growth Rate (HEK-293T; 24 h, replicate number 2) | Growth Rate (Fibroblast; 6 h, replicate number 1) | Growth Rate (Fibroblast; 6 h, replicate number 2) | Growth Rate (Fibroblast; 12 h, replicate number 1) | Growth Rate (Fibroblast; 12 h, replicate number 2) | Growth Rate (Fibroblast; 18 h, replicate number 1) | Growth Rate (Fibroblast; 24 h, replicate number 1) | Growth Rate (Fibroblast; 24 h, replicate number 2) | Growth Rate (U2OS; 6 h, replicate number 1) | Growth Rate (U2OS; 12 h, replicate number 1) | Growth Rate (U2OS; 18 h, replicate number 1) | Growth Rate (U2OS; 24 h, replicate number 1) | Growth Rate (Fibroblast; 18 h, replicate number 2) | Growth Rate (U2OS; 12 h, replicate number 2) | further results
1 | CC[C@H](Nc1c(C#N)c(-c2ccc(-c3cccc(C)c3F)cc2)nc2cnccc12)C(=O)O [BAY-0361] | 0.67 | 0.79 | 0.98 | 0.91 | 0.94 | 0.92 | 0.98 | 0.67 | 0.85 | 0.65 | 0.93 | 0.75 | 0.8 | 0.84 | 0.1 | 0.56 | 0.74 | 0.91 |  |  | Growth Rate (HEK-293T; 0 h, replicate number 2): 0.79; Growth Rate (HEK-293T; 6 h, replicate number 2): 0.74
2 | CCC(C(=O)Nc1ccc(-c2cc3ccccc3s2)c(C(N)=O)c1)c1nccs1 (centres undefined) | 0.31 | 0.59 | 0.52 | 0.48 | 0.61 | 0.47 | 0.71 | 0.22 | -0.79 | 0.72 |  | 0.93 | 0.96 |  | 0.65 | 0.41 | 0.47 | 0.72 | 0.9 | 0.59 | Growth Rate (HEK-293T; 6 h, replicate number 2): 0.23; Growth Rate (U2OS; 0 h, replicate number 1): 0.65; Growth Rate (U2OS; 6 h, replicate number 2): 0.92; Growth Rate (U2OS; 18 h, replicate number 2): 0.8; Growth Rate (U2OS; 24 h, replicate number 2): 0.86
3 | C=C[C@H]1C[N@@]2CC[C@H]1C[C@@H]2[C@@H](O)c1ccnc2ccc(OC)cc12 [QUINIDINE] |  |  |  |  |  |  |  | 0.36 | 0.17 | -1 | 0.9 |  |  | 0.74 |  | 0.59 | 0.93 | 0.96 | 1 | 0.65 | Growth Rate (HEK-293T; 6 h, replicate number 2): 0.85; Growth Rate (Fibroblast; 0 h, replicate number 1): -0.43; Growth Rate (U2OS; 0 h, replicate number 2): -1; Growth Rate (U2OS; 6 h, replicate number 2): -0.07; Growth Rate (U2OS; 18 h, replicate number 2): 0.73; Growth Rate (U2OS; 24 h, replicate number 2): 0.83
4 | Cc1nc2ccc(Oc3ccc(F)cc3)cc2c(=O)n1C[C@H]1CCCN(C(C)C)C1.Cl | 0.43 | 0.27 | 0.35 | 0.16 | 0.4 | 0.17 | 0.23 | 0.24 |  | 0.12 | 0.34 | 0.13 | 0.18 | 0.73 | 0.84 |  |  | 0.95 | 0.69 |  | Growth Rate (HEK-293T; 6 h, replicate number 2): 0.87; Growth Rate (Fibroblast; 0 h, replicate number 1): -1; Growth Rate (U2OS; 0 h, replicate number 1): 0.57; Growth Rate (U2OS; 0 h, replicate number 2): -0.36
5 | Cc1cc(OC2CCS(=O)(=O)CC2)cc(C)c1-c1cccc(COc2ccc(CCC(=O)O)c(F)c2)c1 | 0.99 |  |  | 0.99 |  | 0.94 | 0.96 |  |  | 0.64 | 0.88 | 0.84 |  |  |  | 0.88 | 0.96 | 0.92 |  | 0.91 | Growth Rate (HEK-293T; 0 h, replicate number 2): 0.14; Growth Rate (Fibroblast; 0 h, replicate number 1): -0.63; Growth Rate (Fibroblast; 0 h, replicate number 2): 0; Growth Rate (U2OS; 6 h, replicate number 2): 0.78; Growth Rate (U2OS; 18 h, replicate number 2): 0.99; Growth Rate (U2OS; 24 h, replicate number 2): 0.87
6 | CN(c1ccc(C(F)(F)F)cc1)S(=O)(=O)c1ccc(C(=O)Nc2nc(-c3ccccn3)cs2)cc1 |  |  |  |  | 0.84 | 0.82 | 0.76 |  |  |  |  |  | 0.92 | 0.82 |  |  | 0.94 |  |  | 0.65 | Growth Rate (U2OS; 0 h, replicate number 1): -1; Growth Rate (U2OS; 6 h, replicate number 2): 0.76; Growth Rate (U2OS; 24 h, replicate number 2): 1
7 | Cc1ccc(-n2nc(C(C)(C)C)cc2NC(=O)Nc2ccccc2F)cc1 |  |  |  |  |  |  |  | -0.08 | 0.02 | 0.68 | 0.82 | 0.86 | 0.91 |  | 0.9 | 0.91 | 0.79 | 0.72 |  | 0.72 | Growth Rate (HEK-293T; 0 h, replicate number 1): -0.4; Growth Rate (U2OS; 0 h, replicate number 2): -0.52; Growth Rate (U2OS; 6 h, replicate number 2): 0.67; Growth Rate (U2OS; 24 h, replicate number 2): 0.85
8 | C[C@]12CC[C@@H]3c4ccc(O)cc4CC[C@H]3[C@@H]1C[C@H]1OC(=O)C[C@]12O | 0.27 | 0.37 | 0.34 | 0.36 | 0.67 | 0.53 | 0.86 | 0.09 | -0.98 | 0.52 | -0.36 | 0.55 | 0.77 | 0.48 | 0.43 | 0.21 | 0.38 | 0.6 | 0.13 | 0.26 | Growth Rate (Fibroblast; 0 h, replicate number 1): -1; Growth Rate (U2OS; 0 h, replicate number 1): 0.82; Growth Rate (U2OS; 0 h, replicate number 2): 0.2; Growth Rate (U2OS; 6 h, replicate number 2): -0.19; Growth Rate (U2OS; 18 h, replicate number 2): 0.65; Growth Rate (U2OS; 24 h, replicate number 2): 0.72
9 | Nc1ncc2c(n1)-c1c([nH]c3ccc(C4=CCOCC4)cc13)CCC2 | -0.33 | -0.13 | -0.09 | 0.18 | 0.36 | 0.37 | 0.41 |  |  | 0.69 | 0.71 | 0.73 | 0.68 | 0.71 | 0.74 |  | 0.96 | 0.76 | 0.96 | 0.98 | Growth Rate (HEK-293T; 0 h, replicate number 1): 0.56; Growth Rate (HEK-293T; 0 h, replicate number 2): -0.64; Growth Rate (HEK-293T; 6 h, replicate number 2): -0.1; Growth Rate (Fibroblast; 0 h, replicate number 2): -0.45; Growth Rate (U2OS; 0 h, replicate number 2): 0.72
10 | CN(C)CCCNc1ccnc(Nc2cccc(Cl)c2)n1 | -0.38 | -0.19 | -0.09 | -0.03 | 0.04 | 0.02 | 0.29 | 0.3 | 0 | 0.88 | 0.34 | 0.67 | 0.56 | 0.38 | -0.98 |  |  |  | 0.45 | 0.65 | Growth Rate (Fibroblast; 0 h, replicate number 1): -0.99; Growth Rate (Fibroblast; 0 h, replicate number 2): 0.25; Growth Rate (U2OS; 0 h, replicate number 1): -1; Growth Rate (U2OS; 6 h, replicate number 2): 0.82; Growth Rate (U2OS; 18 h, replicate number 2): 0.64; Growth Rate (U2OS; 24 h, replicate number 2): 0.47
11 | FC(F)(F)Oc1ccc(-c2ccc3nnc(C(F)(F)F)n3c2)cc1 | 0.53 |  |  | 1 |  |  |  | -0.05 | -1 | -1 | 0.76 | 0.42 |  | 0.91 | 0.08 | 0.82 | 0.74 | 0.91 | 0.75 | 0.64 | Growth Rate (HEK-293T; 0 h, replicate number 1): 0.83; Growth Rate (HEK-293T; 0 h, replicate number 2): 0.64; Growth Rate (U2OS; 6 h, replicate number 2): 0.81; Growth Rate (U2OS; 18 h, replicate number 2): 0.92; Growth Rate (U2OS; 24 h, replicate number 2): 0.96
12 | O=C(O)/C=C/c1ccc(Cn2ccnc2)cc1 [OZAGREL] |  |  | 0.92 | 0.96 |  |  |  |  |  |  |  | 0.97 | 0.78 |  | 0.91 |  |  | 0.94 |  | 0.94 | Growth Rate (HEK-293T; 0 h, replicate number 1): 0.5; Growth Rate (HEK-293T; 0 h, replicate number 2): 0.4; Growth Rate (Fibroblast; 0 h, replicate number 1): -1; Growth Rate (Fibroblast; 0 h, replicate number 2): -0.85; Growth Rate (U2OS; 0 h, replicate number 2): 0.65
13 | CO[C@H]1C[C@@H]2CC[C@@H](C)[C@@](O)(O2)C(=O)C(=O)N2CCCC[C@H]2C(=O)O[C@H]([C@H](C)C[C@@H]2CC[C@@H](O)[C@H](OC)C2)CC(=O)[C@H](C)/C=C(\C)[C@@H](O)[C@@H](OC)C(=O)[C@H](C)C[C@H](C)/C=C/C=C/C=C/1C [SIROLIMUS] | -0.13 | -0.06 | 0.13 | 0.16 | 0.23 | 0.26 | 0.3 | 0.43 |  | 0.47 | 0.93 | 0.23 | 0.35 | 0.84 |  | 0.93 |  | 0.94 | 0.97 | 0.81 | Growth Rate (HEK-293T; 0 h, replicate number 1): -0.78; Growth Rate (HEK-293T; 0 h, replicate number 2): -0.17; Growth Rate (HEK-293T; 6 h, replicate number 2): 0.36; Growth Rate (U2OS; 0 h, replicate number 2): 0.94
14 | O=C(O)C[C@H]1CCn2c1c(Sc1ccc(Cl)cc1)c1ccc(F)cc12 | 0.76 | 0.96 | 0.99 |  | 0.93 | 0.92 | 0.78 |  | 0.42 |  | 0.4 |  | 0.89 | 0.83 |  |  |  | 0.94 | 0.97 |  | Growth Rate (HEK-293T; 0 h, replicate number 1): 0.01; Growth Rate (HEK-293T; 0 h, replicate number 2): -0.28; Growth Rate (Fibroblast; 0 h, replicate number 1): -1
